Measured values taken from the supplement of paper PMC10307832.

Legend:
Test in all cases: relative viability (nuclei count vs DMSO), 5 days (fraction); higher = more cells survive
Afatinib + Vorinostat = compound: CN(C)C/C=C/C(=O)Nc1cc2c(Nc3ccc(F)c(Cl)c3)ncnc2cc1O[C@H]1CCOC1 [Afatinib] + O=C(CCCCCCC(=O)Nc1ccccc1)NO [Vorinostat] (partner 1 µM)
Procedure, shortened: (§1)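 After 5 days of treatment, lung cancer cells in 1536-well plates were fixed and stained in a single step (final 0.05% Triton X-100, 1% formaldehyde, 1 ug/ml Hoechst) and their nuclei counted on 4× images. Treatment had been applied by pin tool the day after seeding as one drug alone or as a fixed anchor-drug dose with five library-drug doses (not always all listed) in √10 steps. Relative viability is the nuclei count of treated wells divided by that of vehicle wells, and values are medians of duplicate plates.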

Afatinib + Pemetrexed = compound: CN(C)C/C=C/C(=O)Nc1cc2c(Nc3ccc(F)c(Cl)c3)ncnc2cc1O[C@H]1CCOC1 [Afatinib] + Nc1nc2[nH]cc(CCc3ccc(C(=O)N[C@@H](CCC(=O)O)C(=O)O)cc3)c2c(=O)[nH]1 [Pemetrexed] (partner 0.2 µM)
Procedure, shortened: as §1

Afatinib + Navitoclax = compound: CN(C)C/C=C/C(=O)Nc1cc2c(Nc3ccc(F)c(Cl)c3)ncnc2cc1O[C@H]1CCOC1 [Afatinib] + CC1(C)CCC(c2ccc(Cl)cc2)=C(CN2CCN(c3ccc(C(=O)NS(=O)(=O)c4ccc(N[C@H](CCN5CCOCC5)CSc5ccccc5)c(S(=O)(=O)C(F)(F)F)c4)cc3)CC2)C1 [Navitoclax] (partner 0.5 µM)
Procedure, shortened: as §1

Afatinib + Linsitinib = compound: CN(C)C/C=C/C(=O)Nc1cc2c(Nc3ccc(F)c(Cl)c3)ncnc2cc1O[C@H]1CCOC1 [Afatinib] + C[C@]1(O)C[C@@H](c2nc(-c3ccc4ccc(-c5ccccc5)nc4c3)c3c(N)nccn32)C1 [Linsitinib] (partner 1 µM)
Procedure, shortened: as §1

Cell Line | relative viability (Afatinib + Vorinostat; first compound 0.005 µM) | relative viability (Afatinib + Vorinostat; first compound 0.01581 µM) | relative viability (Afatinib + Vorinostat; first compound 0.05 µM) | relative viability (Afatinib + Vorinostat; first compound 0.1581 µM) | relative viability (Afatinib + Vorinostat; first compound 0.5 µM) | relative viability (Afatinib + Pemetrexed; first compound 0.005 µM) | relative viability (Afatinib + Pemetrexed; first compound 0.01581 µM) | relative viability (Afatinib + Pemetrexed; first compound 0.05 µM) | relative viability (Afatinib + Pemetrexed; first compound 0.1581 µM) | relative viability (Afatinib + Pemetrexed; first compound 0.5 µM) | relative viability (Afatinib + Navitoclax; first compound 0.005 µM) | relative viability (Afatinib + Navitoclax; first compound 0.01581 µM) | relative viability (Afatinib + Navitoclax; first compound 0.05 µM) | relative viability (Afatinib + Navitoclax; first compound 0.1581 µM) | relative viability (Afatinib + Navitoclax; first compound 0.5 µM) | relative viability (Afatinib + Linsitinib; first compound 0.005 µM) | relative viability (Afatinib + Linsitinib; first compound 0.01581 µM) | relative viability (Afatinib + Linsitinib; first compound 0.05 µM) | relative viability (Afatinib + Linsitinib; first compound 0.1581 µM) | relative viability (Afatinib + Linsitinib; first compound 0.5 µM)
LOU-NH91 | 0.742 | 0.776 | 0.837 | 0.748 | 0.848 | 0.371 | 0.424 | 0.393 | 0.433 | 0.418 | 0.402 | 0.39 | 0.441 | 0.348 | 0.402 | 0.527 | 0.551 | 0.58 | 0.534 | 0.591
LU99A | 0.467 | 0.61 | 0.487 | 0.419 | 0.502 | 0.158 | 0.192 | 0.18 | 0.206 | 0.181 | 0.859 | 0.706 | 0.797 | 0.793 | 0.883 | 0.509 | 0.562 | 0.488 | 0.453 | 0.477
LXF-289 | 0.762 | 0.678 | 0.748 | 0.753 | 0.716 | 0.909 | 0.88 | 0.843 | 0.879 | 0.824 | 0.975 | 0.885 | 0.91 | 0.927 | 0.963 | 1 | 0.927 | 0.947 | 0.851 | 0.947
NCI-H23 | 0.787 | 0.589 | 0.615 | 0.619 | 0.591 | 0.667 | 0.609 | 0.586 | 0.704 | 0.567 | 0.973 | 0.843 | 0.881 | 0.735 | 0.814 | 0.601 | 0.628 | 0.584 | 0.523 | 0.486
NCI-H322M | 0.825 | 0.506 | 0.658 | 0.61 | 0.567 | 0.563 | 0.534 | 0.523 | 0.531 | 0.509 | 1.28 | 0.864 | 0.586 | 0.405 | 0.371 | 0.847 | 0.616 | 0.468 | 0.419 | 0.588
NCI-H441 | 0.791 | 0.94 | 0.737 | 0.878 | 0.698 | 0.255 | 0.246 | 0.25 | 0.283 | 0.274 | 0.904 | 0.516 | 0.446 | 0.399 | 0.294 | 0.529 | 0.523 | 0.516 | 0.503 | 0.425
NCI-H460 | 0.892 | 0.767 | 0.722 | 0.702 | 0.686 | 0.0534 | 0.0601 | 0.0633 | 0.0503 | 0.0638 | 1.21 | 1.06 | 1.14 | 1.18 | 1.11 | 0.74 | 0.713 | 0.905 | 0.866 | 0.796
NCI-H520 | 0.807 | 0.707 | 0.639 | 0.698 | 0.717 | 0.771 | 0.717 | 0.749 | 0.725 | 0.668 | 1.21 | 1.15 | 1.02 | 1.1 | 1.11 | 0.983 | 0.998 | 0.992 | 0.931 | 0.802
NCI-H596 | 0.706 | 0.541 | 0.571 | 0.745 | 0.62 | 0.537 | 0.492 | 0.504 | 0.548 | 0.489 | 1.01 | 0.94 | 1.03 | 0.815 | 0.934 | 1.06 | 1.16 | 1.1 | 1.02 | 0.888
NCI-H647 | 0.493 | 0.513 | 0.595 | 0.523 | 0.524 | 0.174 | 0.169 | 0.179 | 0.188 | 0.107 | 1.09 | 0.951 | 1.16 | 1.13 | 1.39 | 1.1 | 1.22 | 1.24 | 1.27 | 1.18
NCI-H838 | 0.695 | 0.74 | 0.74 | 0.639 | 0.801 | 0.246 | 0.243 | 0.259 | 0.243 | 0.259 | 1.12 | 1.14 | 1.27 | 1.2 | 1.16 | 1.04 | 0.949 | 1.07 | 0.952 | 1.06
NCI-H1355 | 0.597 | 0.585 | 0.545 | 0.553 | 0.552 | 1.07 | 1.01 | 0.946 | 0.906 | 0.974 | 0.807 | 1.02 | 0.823 | 0.764 | 0.792 | 0.744 | 0.828 | 0.728 | 0.586 | 0.662
NCI-H1395 | 0.857 | 0.571 | 0.674 | 0.711 | 0.5 | 0.951 | 0.811 | 0.827 | 0.92 | 0.752 | 1.31 | 0.999 | 1.12 | 1.17 | 1.2 | 1.43 | 1.13 | 1.22 | 1.19 | 1.13
NCI-H1437 | 0.841 | 0.831 | 0.967 | 0.776 | 0.908 | 0.32 | 0.298 | 0.339 | 0.324 | 0.283 | 1.1 | 1.1 | 1.17 | 1.1 | 1.1 | 1.18 | 1.1 | 0.941 | 0.98 | 0.967
NCI-H1651 | 0.628 | 0.521 | 0.512 | 0.575 | 0.539 | 0.553 | 0.539 | 0.57 | 0.569 | 0.54 | 1.18 | 0.989 | 1.08 | 0.949 | 0.941 | 1.12 | 0.983 | 0.847 | 0.906 | 0.815
NCI-H1666 | 1 | 1.03 | 1.03 | 0.811 | 0.712 | 0.85 | 0.768 | 0.843 | 0.704 | 0.69 | 0.887 | 0.748 | 0.583 |  | 0.389 | 0.724 | 0.743 | 0.56 |  | 0.561
